Assay results reported in PubChem BioAssay AID1963985 (Molecular Pharmacology Branch, DTP, NCI, 2024).

System: 252836-082-R-J2-PDC tumor spheroids, viability
Test: Anticancer human tumor 252836-082-R-J2-PDC patient-derived head and neck squamous cell carcinoma cell line growth inhibition [PI3K]
Conditions: spheroids with HUVEC and MSC; for IC50: curve of first compound; for viability, T/C: stronger effect = lower value; active = viability on the fitted dose curve at most 10% of control; inactive = the rest
How it was run: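 Complex 3D spheroids (cancer cells + endothelial HUVEC + mesenchymal stem cells); drug pairs of targeted agent x inavolisib/alpelisib/duvelisib/copanlisib; half-log series from ~Cmax, max 10 microM if Cmax unknown; endpoint viability.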
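Also: spheroids exposed to agents for seven days before readout.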
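For viability, T/C in this document: percent of vehicle DMSO control viability so 100% = untreated growth.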

Cn1cnc2c(F)c(Nc3ccc(Br)cc3Cl)c(C(=O)NOCCO)cc21 + COc1c(OCCCN2CCOCC2)ccc2c3n(c(=NC(=O)c4cnc(N)nc4)nc12)CCN3
active: viability, T/C (second compound 0.316 µM, first compound 0.0949 µM) 9.2% | viability, T/C (second compound 0.316 µM, first compound 0.3 µM) 7.79% | viability, T/C (second compound 0.316 µM, first compound 0.949 µM) 3.35% | viability, T/C (second compound 0.316 µM, first compound 3 µM) 0.38% | viability, T/C (second compound 1 µM, first compound 0.00949 µM) 2.53% | viability, T/C (second compound 1 µM, first compound 0.03 µM) 2.17% | viability, T/C (second compound 1 µM, first compound 0.0949 µM) 2.32% | viability, T/C (second compound 1 µM, first compound 0.3 µM) 0.64% | viability, T/C (second compound 1 µM, first compound 0.949 µM) 3.69% | viability, T/C (second compound 1 µM, first compound 3 µM) 0.18%
inactive: viability, T/C (second compound 0.00316 µM, first compound 0.00949 µM) 91.6% | viability, T/C (second compound 0.00316 µM, first compound 0.03 µM) 71.5% | viability, T/C (second compound 0.00316 µM, first compound 0.0949 µM) 82.4% | viability, T/C (second compound 0.00316 µM, first compound 0.3 µM) 80.4% | viability, T/C (second compound 0.00316 µM, first compound 0.949 µM) 75.3% | viability, T/C (second compound 0.00316 µM, first compound 3 µM) 37.5% | viability, T/C (second compound 0.01 µM, first compound 0.00949 µM) 73.5% | viability, T/C (second compound 0.01 µM, first compound 0.03 µM) 70.3% | viability, T/C (second compound 0.01 µM, first compound 0.0949 µM) 76.7% | viability, T/C (second compound 0.01 µM, first compound 0.3 µM) 65.2% | viability, T/C (second compound 0.01 µM, first compound 0.949 µM) 52.1% | viability, T/C (second compound 0.01 µM, first compound 3 µM) 35.5% | viability, T/C (second compound 0.0316 µM, first compound 0.00949 µM) 59.6% | viability, T/C (second compound 0.0316 µM, first compound 0.03 µM) 48.8% | viability, T/C (second compound 0.0316 µM, first compound 0.0949 µM) 49% | viability, T/C (second compound 0.0316 µM, first compound 0.3 µM) 46.2% | viability, T/C (second compound 0.0316 µM, first compound 0.949 µM) 34.1% | viability, T/C (second compound 0.0316 µM, first compound 3 µM) 25.1% | viability, T/C (second compound 0.1 µM, first compound 0.00949 µM) 31.6% | viability, T/C (second compound 0.1 µM, first compound 0.03 µM) 33.3% | viability, T/C (second compound 0.1 µM, first compound 0.0949 µM) 33.1% | viability, T/C (second compound 0.1 µM, first compound 0.3 µM) 29.5% | viability, T/C (second compound 0.1 µM, first compound 0.949 µM) 18% | viability, T/C (second compound 0.1 µM, first compound 3 µM) 7.77% | viability, T/C (second compound 0.316 µM, first compound 0.00949 µM) 14.8% | viability, T/C (second compound 0.316 µM, first compound 0.03 µM) 12.2%
78.4 nM: IC50 (second compound 0.0316 µM)
< 9.49 nM: IC50 (second compound 0.1 µM) | IC50 (second compound 0.316 µM) | IC50 (second compound 1 µM)
2050 nM: IC50 (second compound 0.00316 µM)
1070 nM: IC50 (second compound 0.01 µM)

C=CC(=O)N1CCN(c2nc(=O)n(-c3c(C)ccnc3C(C)C)c3nc(-c4c(O)cccc4F)c(F)cc23)C(C)C1 (centres undefined) + CC(Nc1ccc2c(c1)OCCn1cc(N3C(=O)OCC3C(F)F)nc1-2)C(N)=O
> 10000 nM: IC50 (second compound 0.00316 µM) | IC50 (second compound 0.01 µM) | IC50 (second compound 0.0316 µM) | IC50 (second compound 0.1 µM) | IC50 (second compound 0.316 µM)
< 31.6 nM: IC50 (second compound 1 µM)
inactive: viability, T/C (second compound 0.00316 µM, first compound 0.0316 µM) 104% | viability, T/C (second compound 0.00316 µM, first compound 0.1 µM) 87.8% | viability, T/C (second compound 0.00316 µM, first compound 0.316 µM) 105% | viability, T/C (second compound 0.00316 µM, first compound 1 µM) 105% | viability, T/C (second compound 0.00316 µM, first compound 3.16 µM) 115% | viability, T/C (second compound 0.00316 µM, first compound 10 µM) 95.9% | viability, T/C (second compound 0.01 µM, first compound 0.0316 µM) 95.3% | viability, T/C (second compound 0.01 µM, first compound 0.1 µM) 90% | viability, T/C (second compound 0.01 µM, first compound 0.316 µM) 117% | viability, T/C (second compound 0.01 µM, first compound 1 µM) 86.8% | viability, T/C (second compound 0.01 µM, first compound 3.16 µM) 104% | viability, T/C (second compound 0.01 µM, first compound 10 µM) 89.7% | viability, T/C (second compound 0.0316 µM, first compound 0.0316 µM) 79.2% | viability, T/C (second compound 0.0316 µM, first compound 0.1 µM) 78.6% | viability, T/C (second compound 0.0316 µM, first compound 0.316 µM) 104% | viability, T/C (second compound 0.0316 µM, first compound 1 µM) 88.4% | viability, T/C (second compound 0.0316 µM, first compound 3.16 µM) 100% | viability, T/C (second compound 0.0316 µM, first compound 10 µM) 78.3% | viability, T/C (second compound 0.1 µM, first compound 0.0316 µM) 76.1% | viability, T/C (second compound 0.1 µM, first compound 0.1 µM) 62.8% | viability, T/C (second compound 0.1 µM, first compound 0.316 µM) 76.9% | viability, T/C (second compound 0.1 µM, first compound 1 µM) 76.3% | viability, T/C (second compound 0.1 µM, first compound 3.16 µM) 81% | viability, T/C (second compound 0.1 µM, first compound 10 µM) 94.6% | viability, T/C (second compound 0.316 µM, first compound 0.0316 µM) 63.5% | viability, T/C (second compound 0.316 µM, first compound 0.1 µM) 60.6% | viability, T/C (second compound 0.316 µM, first compound 0.316 µM) 59.5% | viability, T/C (second compound 0.316 µM, first compound 1 µM) 56.3% | viability, T/C (second compound 0.316 µM, first compound 3.16 µM) 62.2% | viability, T/C (second compound 0.316 µM, first compound 10 µM) 67.6% | viability, T/C (second compound 1 µM, first compound 0.0316 µM) 45.3% | viability, T/C (second compound 1 µM, first compound 0.1 µM) 53% | viability, T/C (second compound 1 µM, first compound 0.316 µM) 53.3% | viability, T/C (second compound 1 µM, first compound 1 µM) 41.6% | viability, T/C (second compound 1 µM, first compound 3.16 µM) 57% | viability, T/C (second compound 1 µM, first compound 10 µM) 47.7%
